# Measurements published in ChEMBL document CHEMBL4842341, “Discovery of IACS-9779 and IACS-70465 as Potent Inhibitors Targeting Indoleamine 2,3-Dioxygenase 1 (IDO1) Apoenzyme” (J Med Chem, 2021).
# Experiments:
# in vitro [1] = details: human, liver microsomes
# in vivo [2] = details: CD1, mouse, iv, 0.3 mg/kg
# in vivo [3] = details: CD1, mouse, iv, 0.3 mg/kg; remark: listed apart in the source
# in vivo [4] = details: CD1, mouse, iv, 0.3 mg/kg; remark: listed apart in the source
# in vivo [5] = details: CD1, mouse, iv, 0.3 mg/kg; remark: listed apart in the source
# in vivo [6] = details: CD1, mouse, po, 10 mg/kg
# in vivo [7] = details: CD1, mouse, po, 10 mg/kg; remark: listed apart in the source
# in vitro [8] = details: rat, liver microsomes
# in vivo [9] = details: NSG, mouse, tumor, po, 125 mg/kg
# in vivo [10] = details: NSG, mouse, plasma, po, 125 mg/kg
# [11] = Half life in mouse plasma; type: ADME, cell-free
# [12] = Apparent permeability across apical side to basolateral side in MDCK-MDR1 cells; type: ADME, cell-based, Canis lupus familiaris; details: dog
# [13] = Apparent permeability across basolateral side to apical side in MDCK-MDR1 cells; type: ADME, cell-based, Canis lupus familiaris; details: dog
# [14] = Apparent permeability across basolateral side to apical side in MDCK cells; type: ADME, cell-based, Canis lupus familiaris; details: dog
# [15] = Apparent permeability across apical side to basolateral side in wild type MDCK cells; type: ADME, cell-based, Canis lupus familiaris; details: dog
# in vivo [16] = details: NSG, mouse, tumor, po, 125 mg/kg; remark: listed apart in the source
# in vivo [17] = details: NSG, mouse, plasma, po, 125 mg/kg; remark: listed apart in the source
# in vivo [18] = details: CD-1, mouse, iv, 0.3 mg/kg
# in vivo [19] = details: CD-1, mouse, iv, 0.3 mg/kg; remark: listed apart in the source
# in vivo [20] = details: CD-1, mouse, iv, 0.3 mg/kg; remark: listed apart in the source
# in vivo [21] = details: NSG, mouse, plasma, po, 125 mg/kg; remark: listed apart in the source
# in vivo [22] = details: NSG, mouse, tumor, po, 125 mg/kg; remark: listed apart in the source
# in vivo [23] = details: CD-1, mouse, po, 10 mg/kg
# in vivo [24] = details: CD-1, mouse, iv, 0.3 mg/kg; remark: listed apart in the source
# in vivo [25] = details: CD-1, mouse, po, 10 mg/kg; remark: listed apart in the source
# [26] = Drug concentration in plasma of NSG mouse xenografted with human SKOV3 cells at 200 mg/kg, po BID measured after 12 hrs by LC-MS analysis; type: ADME, organism-based, SK-OV-3
# [27] = Drug concentration in tumor of NSG mouse xenografted with human SKOV3 cells at 200 mg/kg, po BID measured after 12 hrs by LC-MS analysis; type: ADME, organism-based, Neoplasm, SK-OV-3; details: read-out: Drug uptake
smiles,measurement,setting,value
CCC(NC(=O)c1ccc(Cl)cc1)[C@H]1[C@@H]2C[C@@H](n3cc(C4CC4)nn3)C[C@@H]21 (stereo not given in full),"CLint scaled at 0.75 h, 1 µM",in vitro [1],6.5 mL/min/kg
same,Vd,in vivo [2],1.04 L/kg
same,clearance,in vivo [3],4.67 mL/min/kg
same,AUC(0-inf),in vivo [4],2.8 µM·h
same,half-life,in vivo [5],2.7 h
same,bioavailability,in vivo [6],22%
same,Cmax,in vivo [7],1500 nM
CCC(NC(=O)c1ccc(Cl)cc1)[C@H]1[C@@H]2C[C@@H](n3cnc4ccncc43)C[C@@H]21 (stereo not given in full),"CLint scaled at 0.75 h, 1 µM",in vitro [1],8.8 mL/min/kg
CCC(NC(=O)c1ccc(Cl)cc1)[C@H]1[C@@H]2C[C@@H](n3cnc4ccc(F)cc43)C[C@@H]21 (stereo not given in full),"CLint scaled at 0.75 h, 1 µM",in vitro [1],11.8 mL/min/kg
CCC(NC(=O)c1ccc(Cl)cc1)[C@@H]1[C@@H]2C[C@H](Oc3ccnc4cc(F)ccc34)C[C@@H]21 (stereo not given in full),"CLint scaled at 0.75 h, 1 µM",in vitro [1],32 mL/min/kg
O=C(C[C@H]1CC[C@@H](Oc2ccnc3ccccc23)CC1)Nc1ccc(Cl)cc1,"CLint scaled at 0.75 h, 1 µM",in vitro [1],44 mL/min/kg
same,"CLint scaled at 0.75 h, 1 µM",in vitro [8],455 mL/min/kg
O=C(Nc1ccc(Cl)cc1)C1CC12CCC(Oc1ccnc3ccccc13)CC2 (stereo not given),"CLint scaled at 0.75 h, 1 µM",in vitro [1],171 mL/min/kg
same,"CLint scaled at 0.75 h, 1 µM",in vitro [8],137 mL/min/kg
CC[C@@H](NC(=O)c1ccc(Cl)c(F)c1)[C@H]1[C@@H]2C[C@@H](n3cnc4cc(F)c(F)cc43)C[C@@H]21,concentration at 120 h,in vivo [9],11000 nM
same,concentration at 120 h,in vivo [10],4100 nM
CCC(NC(=O)c1ccc(Cl)cc1)[C@@H]1[C@@H]2C[C@H](Oc3ccnc4ccncc34)C[C@@H]21 (stereo not given in full),"CLint scaled at 0.75 h, 1 µM",in vitro [1],54 mL/min/kg
O=C(C[C@H]1CC[C@@H](c2ccccc2)CC1)Nc1ccc(Cl)cc1,"CLint scaled at 0.75 h, 1 µM",in vitro [1],681 mL/min/kg
same,"CLint scaled at 0.75 h, 1 µM",in vitro [8],884 mL/min/kg
CCC(NC(=O)c1ccc(Cl)cc1)[C@@H]1[C@@H]2C[C@@H](Oc3ccnc4ccccc34)C[C@@H]21 (stereo not given in full),"CLint scaled at 0.75 h, 1 µM",in vitro [1],23 mL/min/kg
same,half-life,[11],12.8 h
same,Papp A→B,[12],1.86 ×10⁻⁶ cm/s
same,Papp B→A,[13],1.4 ×10⁻⁶ cm/s
same,"CLint scaled at 0.75 h, 1 µM",in vitro [8],14 mL/min/kg
same,Papp B→A,[14],1.73 ×10⁻⁶ cm/s
same,Papp A→B,[15],3.63 ×10⁻⁶ cm/s
O=C(NC[C@@H]1[C@H]2C[C@@H](Oc3ccnc4ccc(F)cc34)C[C@@H]12)c1ccc(Cl)cc1,"CLint scaled at 0.75 h, 1 µM",in vitro [1],38 mL/min/kg
Fc1cc2ncn([C@H]3C[C@@H]4[C@@H](CNC(c5ccc(Cl)cc5)C(F)(F)F)[C@@H]4C3)c2cc1F (stereo not given in full),"CLint scaled at 0.75 h, 1 µM",in vitro [1],100 mL/min/kg
CCC(NC(=O)c1ccc(Cl)cc1)[C@@H]1[C@@H]2C[C@H](Oc3ccnc4cccnc34)C[C@@H]21 (stereo not given in full),"CLint scaled at 0.75 h, 1 µM",in vitro [1],14 mL/min/kg
O=C(NC[C@H]1[C@H]2C[C@@H](Oc3ccnc4ccc(F)cc34)C[C@@H]12)c1ccc(Cl)cc1,"CLint scaled at 0.75 h, 1 µM",in vitro [1],39 mL/min/kg
CCC(NC(=O)c1ccc(Cl)cc1)[C@@H]1[C@@H]2C[C@H](Oc3ccnc4ccc(F)cc34)C[C@@H]21 (stereo not given in full),Vd,in vivo [2],0.27 L/kg
same,clearance,in vivo [3],0.233 mL/min/kg
same,AUC(0-inf),in vivo [4],51 µM·h
same,half-life,in vivo [5],15 h
same,bioavailability,in vivo [6],146%
same,Cmax,in vivo [7],51000 nM
CC(C(=O)Nc1ccc(Cl)cc1)N1CC(COc2ccnc3ccccc23)C1 (stereo not given),"CLint scaled at 0.75 h, 1 µM",in vitro [1],227 mL/min/kg
same,"CLint scaled at 0.75 h, 1 µM",in vitro [8],526 mL/min/kg
CC[C@@H](NC(=O)c1ccc(Cl)cc1)[C@H]1[C@@H]2C[C@@H](n3cnc4ccc(F)cc43)C[C@@H]21 (stereo in doubt; 56),concentration at 120 h,in vivo [16],2300 nM
same,concentration at 120 h,in vivo [17],600 nM
NS(=O)(=O)NCCNc1nonc1C(=NO)Nc1ccc(F)c(Br)c1 [EPACADOSTAT],Vd at 24 h,in vivo [18],7.5 L/kg
same,half-life at 24 h,in vivo [19],1.6 h
same,AUC(0-inf) at 24 h,in vivo [20],0.21 µM·h
same,concentration at 120 h,in vivo [21],100 nM
same,concentration at 120 h,in vivo [22],3200 nM
same,Cmax at 24 h,in vivo [23],2000 nM
same,clearance at 24 h,in vivo [24],53.3 mL/min/kg
same,bioavailability at 24 h,in vivo [25],50%
same,concentration at 12 h,[26],690 nM
same,"CLint scaled at 0.75 h, 1 µM",in vitro [8],32 mL/min/kg
same,concentration at 12 h,[27],5000 nM
O[C@H](C[C@H]1c2c(F)cccc2-c2cncn21)[C@H]1CC[C@H](O)CC1 [NAVOXIMOD],"CLint scaled at 0.75 h, 1 µM",in vitro [1],11 mL/min/kg
same,"CLint scaled at 0.75 h, 1 µM",in vitro [8],39 mL/min/kg
O=C1CC(c2c[nH]c3ccc(F)cc23)C(=O)N1 (stereo not given) [PF-06840003],"CLint scaled at 0.75 h, 1 µM",in vitro [1],2.9 mL/min/kg
same,"CLint scaled at 0.75 h, 1 µM",in vitro [8],7.2 mL/min/kg
